In patent US20250051324A1, “PARP INHIBITOR, PHARMACEUTICAL COMPOSITION COMPRISING SAME, AND USE THEREOF” (KEYTHERA (SUZHOU) BIO-PHARMACEUTICALS CO., LIMITED, priority 2021, published 2025):
pIC50: −log10 of the molar value. Where two headings read alike, the source gives them in different places.

Key:
PARP1 [1] = target: T1, PARP1 (Homo sapiens (Human), UniProt P09874); assay: PARP enzyme activity assay (PARP1 chemiluminescent assay kit); format: biochemical; details: enzyme inhibitory activity, read-out: PARP-1 IC50
Text: Experimental Materials: The PARP1 assay kit was purchased from BPS Bioscience, USA, specifically the 384-well chemiluminescent assay kit (Catalog No.: #80551).
Experimental Principle: PARP can catalyze the transfer of ADP-ribose residues from NAD+ to target substrates, thereby modifying proteins through ribosylation. This experiment measures PARP1 enzyme activity by detecting the poly(ADP-ribosylation) of histones by PARP1.
Preparation of Reagents and Test Compounds: The 10× assay buffer included in the kit was diluted to 1× with distilled water. The test compound (stock concentration of 10 mM) was diluted to 10 μM with a DMSO solution and then serially diluted in a 1:3 ratio. The serially diluted compounds were further diluted 10-fold with the 1× assay buffer.
Experimental Method: The procedure was carried out according to the kit's instructions:
1. The 5× histone mixture was diluted to 1× with PBS, and 25 μL was added to each well of a 384-well plate, incubating overnight at 4° C.
2. After incubation, 100 μL of PBST (0.05% Tween 20) was added to each well for washing, repeated three times. Then, 100 μL of blocking solution was added to each well and incubated at room temperature for 90 minutes.
3. After incubation, the wells were washed three times with PBST, and then 1.25 μL of 10× assay buffer, 1.25 μL of 10×PARP assay mixture, 2.5 μL of activation DNA (5×), and 7.5 μL of distilled water were added to each well.
4. […] The positive control group and the negative control group were added with 1× assay buffer containing the same concentration of DMSO.
5. Next, 10 μL of 2.5 ng/μL PARP1 enzyme was added to the test compound and positive control groups, while 10 μL of 1× assay buffer was added to the negative control group, and the mixture was incubated at room temperature for 60 minutes.
6. Streptavidin-HRP was diluted 1:50 with the blocking solution. After incubation, the plate was washed three times with PBST, and 25 μL of the diluted streptavidin-HRP solution was added to each well, incubating at room temperature for 30 minutes.
7. After incubation, the plate was washed three times with PBST, and 50 μL of the mixed substrate A and substrate B in equal volumes was added. The luminescence signal was immediately read on a Synergy HTX multi-mode reader.
(§1) 8. Data analysis was performed using GraphPad Prism 8.0 software. The inhibition rate %=100*(average luminescence signal of the positive control group−luminescence signal of the compound)/(average luminescence signal of the positive control group−average luminescence signal of the negative control group). The IC50 value was obtained by plotting the logarithm of the compound concentration against the percentage inhibition rate.

[2] = test system: UWB1.289 ovarian cancer cells; assay: Cell proliferation assay, UWB1.289; format: cell-based; details: UWB1289, 168 h, read-out: UWB1.289 Cell IC50
Protocol: (§2) Experimental Materials: MDA-MB-436 or UWB1.289 cell lines were purchased from Cobioer Biosciences Co. Ltd. (Nanjing, China). The STR identification results were a complete match, and mycoplasma testing was negative. MDA-MB-436 cells were cultured in DMEM complete medium containing 10% fetal bovine serum, 1% penicillin-streptomycin, 1% insulin, and 16 μg/mL glutathione; UWB1.289 cells were cultured in RMPI1640 complete medium containing 10% fetal bovine serum and 1% penicillin-streptomycin.
(§3) 1. MDA-MB-436 or UWB1.289 cells were cultured in the aforementioned medium (culture conditions: 37° C., 5.0% CO2 in air) until they reached the logarithmic growth phase. The cells were then digested with trypsin containing 0.25% EDTA, centrifuged at 1000 rpm, and the supernatant was discarded. Cell culture medium was added, and the cell suspension was adjusted to 2×10^4/mL after counting. 135 μL of the cell suspension per well was taken and cultured in a 96-well cell culture plate for 16 hours (culture conditions: 37° C., 5.0% CO2 in air).
(§4) 2. The test compounds, stored at a concentration of 10 mM, were diluted 2.5 times with DMSO and then serially diluted in a 1:3 gradient (9 gradients). The gradient-diluted samples were further diluted 40 times with serum-free medium, and 15 μL of each was added to the 96-well cell culture plate. The positive control group received serum-free medium containing the same concentration of DMSO, and the negative control group received medium without cells. The cells were then cultured for an additional 7 days.
(§5) 3. After the culture period, the cell culture plate was placed at room temperature for 30 minutes. Then, 100 μL of CellCounting-Lite 2.0 reagent (Vazyme, #DD1101) was added to each well, mixed thoroughly, and incubated in the dark at room temperature for 10 minutes. The luminescence signal was read using a Synergy HTX multi-mode reader.
as §1, with “4. Data” for “8. Data”, “rate (%) was calculated as 100*(average” for “rate %=100*(average”

[3] = Evaluation of pharmacokinetics in mice; details: male, ICR (CD1), mouse, plasma, po, 10 mg/kg
Protocol: Test Objective: The pharmacokinetics of the example compounds of the present application were tested in mice. By measuring the drug concentration in mouse plasma, the pharmacokinetic behavior of the compounds of the present invention was studied to evaluate their pharmacokinetic characteristics.
Test Animals: 6-8 Week Old Male ICR (CD1) Mice
Oral Gavage Drug Preparation: An appropriate amount of the test compound was first weighed and dissolved in DMSO (Macklin cas: 67-68-5) to prepare a 20 mg/mL solution. Then, 75 μL of this solution was added to 150 μL of Solutol (Sigma cas: 70142-34-6), followed by 1.275 mL of 20% Captisol (Selleck cas: 182410-00-0), resulting in a final drug concentration of 1 mg/mL.
Intravenous Injection Drug Preparation: An appropriate amount of the test compound was first weighed and dissolved in DMSO (Macklin cas: 67-68-5) to prepare a 30 mg/mL solution. Then, 15 μL of this solution was added to 150 μL of Solutol (Sigma cas: 70142-34-6), followed by 1.335 mL of 20% Captisol (Selleck cas: 182410-00-0), resulting in a final drug concentration of 0.3 mg/mL.
Procedures: The mice were fasted overnight with free access to water before the experiment. Food was restored two hours after dosing. Blood samples were collected at different time points after intravenous injection or oral gavage of the test compound in mice, and the compound concentration in plasma was measured. Approximately 50 μL of blood was collected from each animal using a capillary sampling tube via the orbital venous plexus, with heparin sodium as an anticoagulant. Blood samples were placed on ice, centrifuged at 3500 r/min for 10 minutes to separate the plasma, and 20 μL of the collected plasma was added to 200 μL of acetonitrile (Merck cas: 75-05-8) containing 200 nM dexamethasone (Selleck cas: 50-02-2) as an internal standard. The mixture was centrifuged at 8000 r/min for 20 minutes. After centrifugation, 150 μL of the supernatant was transferred to a new centrifuge tube, and 150 μL of 0.1% formic acid (Fisher cas: 207868) was added. The mixture was mixed well, and 5 μL of the sample was subjected to quantitative analysis by liquid chromatography-mass spectrometry (Q-TOF LC/MS).
The test compound was serially diluted with DMSO to cover the compound concentrations expected in plasma samples to be tested, with a blank sample (containing only DMSO) included.
2 μL of each diluted sample at various concentrations was added to 18 μL of normal ICR mouse plasma, mixed, and then added to 200 μL of acetonitrile (Merck cas: 75-05-8) containing 200 nM dexamethasone (Selleck cas: 50-02-2) as an internal standard. The mixture was centrifuged for 20 minutes (8000 r/min). 150 μL of the supernatant was transferred to a new centrifuge tube, and 150 μL of 0.1% formic acid (Fisher cas: 207868) was added. The mixture was mixed well, and 5 μL of the sample was subjected to quantitative analysis by liquid chromatography-mass spectrometry (Q-TOF LC/MS).
The final standard curve was plotted using the concentration of the test compound after dilution on the abscissa and the ratio of the signal of the compound to the internal standard (dexamethasone) on the ordinate. The standard curve was generated using linear regression with GraphPad Prism 8 software (R2>0.9900).
Data Analysis: calculation of pharmacokinetic parameters: the concentration of the test compound in plasma at different time points after intravenous injection or oral gavage in ICR mice was determined based on the above standard curve, and pharmacokinetic parameters (T1/2, Cmax, AUC, etc.) were calculated using the Phoenix WinNonlin 8.1 non-compartmental analysis model.

[4] = test system: MDA-MB-436 breast cancer cells; assay: Cell proliferation assay, MDA-MB-436; format: cell-based; details: Homo sapiens, MDA-MB-436, 168 h, read-out: MDA-MB-436 Cell IC50
Protocol: as §2, §3, §4, §5
as §1, with “4. Data” for “8. Data”, “rate (%) was calculated as 100*(average” for “rate %=100*(average”

[5] = Liver microsome metabolism assay; details: CD1, mouse, liver microsomes
Protocol: Experimental Materials: Mixed CD1 mouse liver microsomal enzyme protein was purchased from Xenotech (#M1000), and NADPH was purchased from Abmole (#M9076).
1. To the liver microsomal enzyme reaction system, 210 μL of phosphate buffer was added, followed by 12.5 μL of liver microsomal enzyme at a concentration of 20 mg/mL. Then, 25 μL of NADPH at a concentration of 10 mM was added to the system, mixed well, and incubated in a 37° C. water bath with shaking for 10 minutes.
2. The test compound, stored at a concentration of 10 mM, was diluted to 100 μM with DMSO. Then, 2.5 μL of the diluted test compound was added to the reaction system, mixed well, and incubated in a 37° C. water bath with shaking.
3. At 0.5, 5, 10, 20, 30, and 60 minutes, 25 μL of the enzyme reaction mixture was taken and added to 125 μL of cold acetonitrile containing dexamethasone as an internal standard. The mixture was centrifuged at 4000 g for 20 minutes, and the supernatant was mixed with an equal volume of distilled water. The mixed sample was then subjected to quantitative analysis by liquid chromatography-mass spectrometry.
4. Calculation of in vitro drug metabolism half-life and drug clearance rate:
t1/2=−0.693/k. (k: the slope of the linear regression of the natural logarithm of the percentage of drug remaining versus incubation time).

PARP1 [6] = target: T1, PARP1; assay: PARP1 trapping assay; format: biochemical; details: read-out: Inhibitory Effect on PARP1 Trapping IC50
Protocol: [table] […] 1. A 4× enzyme reaction mixture, comprising PARP1, PARP2, and GST-Tb antibody, was prepared with the buffer and 4 μL of the enzyme reaction mixture was added to a 384-well plate. 2. A 4×PARP1 and PARP2 probe reaction mixture was prepared with the buffer and 4 μL of the probe reaction mixture was added to the 384-well plate. 3. A series of gradient-diluted compounds were prepared and 4 μL of the diluted compounds were added to the 384-well plate, and incubated at room temperature for 45 minutes. 4. After incubation, 4 μL of 4×NAD reaction mixture was added to the 384-well plate and incubated at room temperature for 10 minutes. 5. After incubation, the plate was read using a plate reader. 6. Data Analysis: The percentage inhibition rate was calculated as follows: Inhibition Rate (%)=(Reading of Compound Group−Reading of Blank Group)/(Reading of Vehicle Control Group−Reading of Blank Group).

T1 sequence (P09874 whole entry): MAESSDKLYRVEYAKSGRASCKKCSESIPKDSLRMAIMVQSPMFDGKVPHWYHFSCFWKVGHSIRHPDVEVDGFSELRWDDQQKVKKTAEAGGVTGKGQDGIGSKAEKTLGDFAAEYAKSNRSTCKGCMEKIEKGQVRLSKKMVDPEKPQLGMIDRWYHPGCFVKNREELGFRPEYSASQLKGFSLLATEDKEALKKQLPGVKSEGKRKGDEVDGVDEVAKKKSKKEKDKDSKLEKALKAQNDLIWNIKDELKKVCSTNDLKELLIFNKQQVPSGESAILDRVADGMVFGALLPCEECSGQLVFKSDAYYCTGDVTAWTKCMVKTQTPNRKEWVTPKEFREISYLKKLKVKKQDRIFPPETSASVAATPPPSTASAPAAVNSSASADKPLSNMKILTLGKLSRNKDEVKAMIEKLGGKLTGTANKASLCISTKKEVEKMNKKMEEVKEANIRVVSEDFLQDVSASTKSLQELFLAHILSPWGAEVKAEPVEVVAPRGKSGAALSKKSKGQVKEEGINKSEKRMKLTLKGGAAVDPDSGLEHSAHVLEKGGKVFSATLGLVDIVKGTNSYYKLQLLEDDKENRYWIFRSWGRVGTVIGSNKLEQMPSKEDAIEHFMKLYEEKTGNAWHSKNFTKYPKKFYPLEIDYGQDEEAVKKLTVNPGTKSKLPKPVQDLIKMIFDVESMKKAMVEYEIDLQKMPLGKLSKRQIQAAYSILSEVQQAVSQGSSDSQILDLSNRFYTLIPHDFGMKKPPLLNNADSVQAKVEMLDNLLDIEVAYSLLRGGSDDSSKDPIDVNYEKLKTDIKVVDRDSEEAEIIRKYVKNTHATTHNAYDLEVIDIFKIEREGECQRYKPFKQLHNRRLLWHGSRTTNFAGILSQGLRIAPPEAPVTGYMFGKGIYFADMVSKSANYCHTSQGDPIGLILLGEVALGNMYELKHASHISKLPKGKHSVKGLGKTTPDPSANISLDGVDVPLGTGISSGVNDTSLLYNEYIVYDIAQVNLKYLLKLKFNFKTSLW

Q: With CNC(=O)c1ccc(N2CCN(Cc3cnc4c(C)c(C(F)(F)F)c(=O)[nH]c4c3)C(COC)C2)cn1 (stereo not shown) [Compound 8, 5-(3-(methoxymethyl)-4-((8-methyl-6-oxo-7-(trifluoromethyl)-5,6-dihydro-1,5-naphthyridin-3-yl)methyl)piperazin-1-yl)-N-methylpicolinamide] as the compound, how does the pIC50 (PARP1 [1]) read?
A: 8.59

Q: What about the pIC50 ([2]; proliferation, 7 days) of the same compound?
A: 7.90

Q: With CNC(=O)c1ccc(N2CCN(Cc3cnc4c(C)c(C(F)(F)F)c(=O)[nH]c4c3)CC2C)cn1 (stereo not shown) [Compound 10, N-methyl-5-(2-methyl-4-((8-methyl-6-oxo-7-(trifluoromethyl)-5,6-dihydro-1,5-naphthyridin-3-yl)methyl)piperazin-1-yl)picolinamide] as the compound, how does the pIC50 (PARP1 [1]) read?
A: 8.55

Q: And the pIC50 ([2]; proliferation, 7 days)?
A: 7.82

Q: With CNC(=O)c1ccc(N2CCN(Cc3cnc4c(C)c(C(F)(F)F)c(=O)[nH]c4c3)C(C)C2)cn1 (stereo not shown) [Compound 11, N-methyl-5-(3-methyl-4-((8-methyl-6-oxo-7-(trifluoromethyl)-5,6-dihydro-1,5-naphthyridin-3-yl)methyl)piperazin-1-yl)picolinamide] as the compound, how does the pIC50 (PARP1 [1]) read?
A: 9.02

Q: What about the pIC50 ([2]; proliferation, 7 days) of the same compound?
A: 7.55

Q: And the AUC(0-inf) [3]?
A: 1500 µg·h/mL

Q: And the Cmax [3]?
A: 55900 ng/mL

Q: And the half-life [3]?
A: 18.9 h

Q: With CNS(=O)(=O)c1ccc(N2CCN(Cc3cnc4c(C)c(C(F)(F)F)c(=O)[nH]c4c3)CC2)cc1 [Compound 13, N-methyl-4-(4-((8-methyl-6-oxo-7-(trifluoromethyl)-5,6-dihydro-1,5-naphthyridin-3-yl)methyl)piperazin-1-yl)benzenesulfonamide] as the compound, how does the pIC50 (PARP1 [1]) read?
A: 8.13

Q: With Cc1c(C(F)(F)F)c(=O)[nH]c2cc(CN3CCN(c4ccc5[nH]c(=O)[nH]c5n4)CC3)cnc12 [Compound 18, 4-methyl-7-((4-(2-oxo-2,3-dihydro-1H-imidazo[4,5-b]pyridin-5-yl)piperazin-1-yl)methyl)-3-(trifluoromethyl)-1,5-naphthyridin-2(1H)-one] as the compound, how does the pIC50 (PARP1 [1]) read?
A: 7.80

Q: With Cc1c(C(F)(F)F)c(=O)[nH]c2cc(CN3CCN(c4ncc(C(F)(F)F)cn4)CC3)cnc12 [Compound 19, 4-methyl-3-(trifluoromethyl)-7-((4-(5-(trifluoromethyl)pyrimidin-2-yl)piperazin-1-yl)methyl)-1,5-naphthyridin-2(1H)-one] as the compound, how does the pIC50 (PARP1 [1]) read?
A: 8.26

Q: With Cc1c(C(F)(F)F)c(=O)[nH]c2cc(CN3CCN(c4ccc(C#N)cn4)CC3)cnc12 [Compound 20, 6-(4-((8-methyl-6-oxo-7-(trifluoromethyl)-5,6-dihydro-1,5-naphthyridin-3-yl)methyl)piperazin-1-yl)nicotinonitrile] as the compound, how does the pIC50 (PARP1 [1]) read?
A: 8.90

Q: What about the pIC50 ([2]; proliferation, 7 days) of the same compound?
A: 7.58

Q: With CNC(=O)c1ccc(N2CCN(Cc3cnc4c(C)c(C(F)(F)F)c(=O)[nH]c4c3)C[C@@H]2C)cn1 [Compound 53, (S)—N-methyl-5-(2-methyl-4-((8-methyl-6-oxo-7-(trifluoromethyl)-5,6-dihydro-1,5-naphthyridin-3-yl)methyl)piperazin-1-yl)picolinamide] as the compound, how does the pIC50 ([2]; proliferation, 7 days) read?
A: 7.87

Q: With CNC(=O)c1ccc(C2CCN(Cc3cnc4c(C)c(C(F)(F)F)c(=O)[nH]c4c3)CC2)cn1 [Compound 71, N-methyl-5-(1-((8-methyl-6-oxo-7-(trifluoromethyl)-5,6-dihydro-1,5-naphthyridin-3-yl)methyl)piperidin-4-yl)picolinamide] as the compound, how does the pIC50 ([2]; proliferation, 7 days) read?
A: 8.09

Q: What does the source list for CNC(=O)c1ccc(N2CCN(Cc3cnc4c(C)c(C(F)(F)F)c(=O)[nH]c4c3)CC2C#N)cn1 (stereo not shown) [Compound 72, 5-(2-cyano-4-((8-methyl-6-oxo-7-(trifluoromethyl)-5,6-dihydro-1,5-naphthyridin-3-yl)methyl)piperazin-1-yl)-N-methylpicolinamide]?
A: pIC50 ([4]; proliferation, 7 days): 8.09; microsomal CLint at 1 µM [5]: 0.6 µL/min/mg

Q: With Cc1c(C(F)(F)F)c(=O)[nH]c2cc(CN3CCN(c4cc5c(cn4)C(=O)N(C)C5)CC3)cnc12 [Compound 84, 4-methyl-7-((4-(2-methyl-3-oxo-2,3-dihydro-1H-pyrrolo[3,4-c]pyridin-6-yl)piperazin-1-yl)methyl)-3-(trifluoromethyl)-1,5-naphthyridin-2(1H)-one] as the compound, how does the microsomal CLint at 1 µM [5] read?
A: 0.72 µL/min/mg

Q: What does the source list for CNC(=O)c1ccc(N2CCN(Cc3cnc4c(C)c(C#N)c(=O)[nH]c4c3)CC2)cn1 [Compound 85, 5-(4-((7-cyano-8-methyl-6-oxo-5,6-dihydro-1,5-naphthyridin-3-yl)methyl)piperazin-1-yl)-N-methylpicolinamide]?
A: pIC50 ([4]; proliferation, 7 days): 7.78; microsomal CLint at 1 µM [5]: 0.86 µL/min/mg

Q: With CNC(=O)c1ccc(N2CCN(Cc3cnc4c(C)c(C(F)(F)F)c(=O)[nH]c4c3)CC2)c(F)n1 [Compound 93, 6-fluoro-N-methyl-5-(4-((8-methyl-6-oxo-7-(trifluoromethyl)-5,6-dihydro-1,5-naphthyridin-3-yl)methyl)piperazin-1-yl)picolinamide] as the compound, how does the pIC50 (PARP1 [6]) read?
A: 8.88

Q: And the pIC50 [2]?
A: 8.57

Q: And the pIC50 [4]?
A: 9.08

Q: And the AUC(0-inf) [3]?
A: 796 µg·h/mL

Q: And the Cmax [3]?
A: 31900 ng/mL

Q: And the half-life [3]?
A: 18.4 h

Q: With Cc1c(C(F)(F)F)c(=O)[nH]c2cc(CN3CCN(c4ccc(C(=O)NC5CC5)nc4)CC3)cnc12 [Compound 99, N-cyclopropyl-5-(4-((8-methyl-6-oxo-7-(trifluoromethyl)-5,6-dihydro-1,5-naphthyridin-3-yl)methyl)piperazin-1-yl)picolinamide] as the compound, how does the pIC50 (PARP1 [6]) read?
A: 8.82

Q: What about the pIC50 ([4]; proliferation, 7 days) of the same compound?
A: 8.77

Q: With CNC(=O)c1ccc(N2CCN(Cc3cnc4c(C)c(C(F)F)c(=O)[nH]c4c3)CC2)cn1 [Compound 100, 5-(4-((7-(difluoromethyl)-8-methyl-6-oxo-5,6-dihydro-1,5-naphthyridin-3-yl)methyl)piperazin-1-yl)-N-methylpicolinamide] as the compound, how does the pIC50 (PARP1 [6]) read?
A: 8.59

Q: And the pIC50 [4]?
A: 8.69
